# Data reported in PubChem BioAssay (NCI).
#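 Dose response: 5 concentrations. Exposure: 48 h. Format: 96-well plates. Endpoint: linear interpolation; highest concentration if not reached. Definition used: TGI = concentration required for complete inhibition of growth.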
# Experiments:
# Experiment in all cases: inhibition of tumour cell growth, NCI panel, 48 h
# [1] = system: UACC-257 melanoma
# [2] = system: UACC-62 melanoma
# [3] = system: EKVX NSCLC
# [4] = system: RPMI-8226 leukemia
# [5] = system: MDA-MB-435
# [6] = system: A498 renal
# [7] = system: HT29 colon
# [8] = system: 786-0 renal
# [9] = system: OVCAR-4 ovarian
# [10] = system: OVCAR-5 ovarian
# [11] = system: NCI-H522 lung
# [12] = system: NCI/ADR-RES ovarian
# [13] = system: DU-145 prostate
# [14] = system: TK-10 renal
# [15] = system: UO-31 renal
# [16] = system: K-562 leukemia
# [17] = system: SK-MEL-2 melanoma
# [18] = system: SF-539 CNS
# [19] = system: CCRF-CEM leukemia
# [20] = system: OVCAR-3 ovarian
# [21] = system: SN12C renal
# [22] = system: HCT-116 colon
# [23] = system: HS 578T breast
# [24] = system: CAKI-1 renal
# [25] = system: PC-3 prostate
# [26] = system: ACHN renal
# [27] = system: MALME-3M melanoma
# [28] = system: NCI-H460 lung
# [29] = system: SF-295 CNS
# [30] = system: T-47D breast
# [31] = system: MOLT-4 leukemia
# [32] = system: HL-60(TB) leukemia
# [33] = system: BT-549 breast
# [34] = system: A549 NSCLC
# [35] = system: SK-MEL-5 melanoma
# [36] = system: IGROV1 ovarian
# [37] = system: M14 melanoma
# [38] = system: SK-MEL-28 melanoma
# [39] = system: HCC-2998 colon
# [40] = system: HCT-15 colon
# [41] = system: COLO 205 colon
# [42] = system: RXF 393 renal
# [43] = system: HOP-62 NSCLC
# [44] = system: KM12 colon
# [45] = system: NCI-H23 lung
# [46] = system: SW-620 colon
# [47] = system: MDA-MB-231 breast
# [48] = system: HOP-92 NSCLC
# [49] = system: OVCAR-8 ovarian
# [50] = system: U251 CNS
# [51] = system: SNB-19 CNS
# [52] = system: LOX IMVI melanoma
# [53] = system: SR leukemia
# [54] = system: MCF7 breast
# [55] = system: SK-OV-3 ovarian
# [56] = system: SF-268 CNS
structure (smiles),measurement,setting,value
NC(N)=N/N=C\c1c(-c2cccc([N+](=O)[O-])c2)nc2sccn12,TGI,[1],48.8 µM
same,TGI,[2],79 µM
same,TGI,[3],56.2 µM
same,TGI,[4],> 100 µM
same,TGI,[5],5.16 µM
same,TGI,[6],64.1 µM
same,TGI,[7],4.23 µM
same,TGI,[8],> 100 µM
same,TGI,[9],3.78 µM
same,TGI,[10],> 100 µM
same,TGI,[11],14.2 µM
same,TGI,[12],> 100 µM
same,TGI,[13],20.8 µM
same,TGI,[14],4.53 µM
same,TGI,[15],37.7 µM
same,TGI,[16],> 100 µM
same,TGI,[17],6.49 µM
same,TGI,[18],54.9 µM
same,TGI,[19],> 100 µM
same,TGI,[20],6.29 µM
same,TGI,[21],4.89 µM
same,TGI,[22],> 100 µM
same,TGI,[23],38.1 µM
same,TGI,[24],45.3 µM
same,TGI,[25],29 µM
same,TGI,[26],5.68 µM
same,TGI,[27],51.4 µM
same,TGI,[28],78.7 µM
same,TGI,[29],5.86 µM
same,TGI,[30],4.18 µM
same,TGI,[31],5 µM
same,TGI,[32],> 100 µM
same,TGI,[33],4.06 µM
same,TGI,[34],51.6 µM
same,TGI,[35],36.1 µM
same,TGI,[36],33.6 µM
same,TGI,[37],5.93 µM
same,TGI,[38],4.37 µM
same,TGI,[39],5.38 µM
same,TGI,[40],> 100 µM
same,TGI,[41],14.5 µM
same,TGI,[42],5.8 µM
same,TGI,[43],> 100 µM
same,TGI,[44],3.66 µM
same,TGI,[45],32.1 µM
same,TGI,[46],5.43 µM
same,TGI,[47],5.01 µM
same,TGI,[48],27.6 µM
Cc1nnc2n1N=C(c1cc(F)c(Cl)cc1Cl)/C(=C/c1ccc(-c3ccc([N+](=O)[O-])cc3)o1)S2,TGI,[1],> 100 µM
same,TGI,[2],> 100 µM
same,TGI,[3],> 100 µM
same,TGI,[4],> 100 µM
same,TGI,[49],> 100 µM
same,TGI,[50],> 100 µM
same,TGI,[5],> 100 µM
same,TGI,[6],> 100 µM
same,TGI,[7],> 100 µM
same,TGI,[8],> 100 µM
same,TGI,[9],> 100 µM
same,TGI,[10],> 100 µM
same,TGI,[11],> 100 µM
same,TGI,[12],> 100 µM
same,TGI,[15],> 100 µM
same,TGI,[16],> 100 µM
same,TGI,[51],> 100 µM
same,TGI,[17],> 100 µM
same,TGI,[19],> 100 µM
same,TGI,[20],> 100 µM
same,TGI,[21],> 100 µM
same,TGI,[22],> 100 µM
same,TGI,[23],> 100 µM
same,TGI,[24],> 100 µM
same,TGI,[25],> 100 µM
same,TGI,[26],> 100 µM
same,TGI,[27],> 100 µM
same,TGI,[28],> 100 µM
same,TGI,[29],> 100 µM
same,TGI,[30],> 100 µM
same,TGI,[31],> 100 µM
same,TGI,[32],> 100 µM
same,TGI,[33],> 100 µM
same,TGI,[34],> 100 µM
same,TGI,[52],> 100 µM
same,TGI,[35],> 100 µM
same,TGI,[36],> 100 µM
same,TGI,[37],> 100 µM
same,TGI,[38],> 100 µM
same,TGI,[39],> 100 µM
same,TGI,[40],> 100 µM
same,TGI,[41],> 100 µM
same,TGI,[43],> 100 µM
same,TGI,[53],> 100 µM
same,TGI,[44],> 100 µM
same,TGI,[54],> 100 µM
same,TGI,[45],> 100 µM
same,TGI,[55],> 100 µM
same,TGI,[46],> 100 µM
same,TGI,[56],> 100 µM
same,TGI,[48],> 100 µM
